# Key:
# Blastomyces dermatitidis = assay: MIC against moulds; assay type: cell-based; details: 5 isolates
# Fusarium solani = assay: MIC against moulds; assay type: cell-based; details: 6 isolates
# moulds (3 strains) = assay: MICavg moulds (3 strains); assay type: cell-based; parameters: unit not given beside the values
# C. albicans SN250 = assay: MIC; assay type: cell-based, Candida albicans
# Mucor velutinosus = assay: MIC against moulds; assay type: cell-based; details: 6 isolates
# Sporothrix schenckii = assay: MIC against rare moulds resistant to AmB; assay type: cell-based; details: 6 isolates
# CD-1 mice = assay type: in vivo; details: for Mouse single IV injection: mortality: 40 mpk
# Experimental: Procedure: The experiment was performed using the commercial Fungizone and Ambisome. Compound BA was directly used after purification without any special treatment. […] . Female CD-1 mice were (3 per group; body weight 30 g each) injected with the drugs/compounds and monitored for 24 h for death or distress signs.
# Compound BA was directly used after purification without any special treatment. […] . Female CD-1 mice were (3 per group; body weight 30 g each) injected with the drugs/compounds and monitored for 24 h for death or distress signs.
# [1] = Liver Microsome stability (In Vitro Metabolism); assay type: in vitro ADME; details: for Remaining (T = NCF60 min): no cofactor 60 min
# Procedure, shortened: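 Compound at 10 uM working solution (50 mM potassium phosphate, 9% MeOH, 1% DMSO) incubated at 37 C with liver microsomes (0.625 mg/ml working) and NADPH regenerating system. Sampled at 5–60 min plus a no-cofactor 60 min control. Reactions quenched with cold ACN containing internal standards; remaining compound measured by LCMS.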
# [2] = In vivo mouse pharmacokinetics, IV; parameters: species or system CD-1 mice
# Experimental: The experiment was performed using the compounds synthesized in lab and purified by preparative HPLC (>91%). All the compounds were dissolved in D5W (5% dextrose in water) at for IV injection. Female CD-1 mice were (3 per group; body weight approx. 30 g each) injected with the compounds (as per planned dosage) and the blood samples were collected at different time points and the compound content was analysed using the following procedure.
# An aliquot of […], IS solution (100 ng/mL Labetalol & 100 ng/mL Tolbutamide in ACN), the mixture was vortex-mixed well and centrifuged at 3900 rpm for 10 min, 4[…]. An aliquot of 90 μL supernatant was transferred to sample plate and mixed with 60 μL water, then the plate was shaken at 800 rpm for 10 min. 15.0 μL supernatant was injected for LC-MS/MS analysis.
# [3] = Liver microsome stability, summary for all species; assay type: in vitro ADME; details: Mouse, rat, dog, monkey, human: All species
# Experimental: Working Compound solution: 10 uM in 50 mM potassium phosphate buffer with 9% MeOH and 1% DMSO
# Microsome solution: working concentration 0.625 mg/ml
# Stopping solution: Cold ACN with 200 ng/ml Tolbutamide and 200 ng/ml Labetalol (4° C.)
# Procedure: In the well plates (T5, T10, T20, T30, T60, NCF60 (no cofactor 60)) 10 uL of the compound/control working solution was added (except T0 and matric blank) followed by microsome solution (80 uL) and the mixture was incubated at 37 C for about 10 mins. A solution of potassium phosphate (10 ul of 50 mM) was added to NCF60 well, incubated at 37 C and time counting started. After prewarming 10 ul of NADPH regenerating solution was added to each plate to start the reaction. At different time point 300 uL/well of stopping solution to terminate the reaction. The sampling plates were shaken for 10 mins and the centrifuged for 20 mins at 4000 rpm. The supernatant was half diluted with ultra pure water and the analyzed using LCMS.
# Candida auris = assay: MIC against yeasts; assay type: cell-based; details: 10 isolates
# A. fumigatus = assay: MIC against moulds; assay type: cell-based; details: 5 isolates
# Licht. Corymbifera = assay: MIC against moulds; assay type: cell-based; details: 6 isolates
# Apophysomyces sp. = assay: MIC against moulds; assay type: cell-based; details: 3 isolates
# C. krusei = assay: MIC; assay type: cell-based
# A. fumigatus 1163 = assay: MIC; assay type: cell-based
# C. tropicalis = assay: MIC; assay type: cell-based
# C. glabrata = assay: MIC; assay type: cell-based
# KIM1, LCN2, TIMP1, SPP1 = assay: Biomarkers of renal injury by RTPCR after IV injection; parameters: species or system mice; details: mouse, in vivo
smiles,measurement,setting,value
CC1C=CC=CC=CC=CC=CC=CC=CC(OC2OC(C)C(O)C(N)C2O)CC2OC(O)(CC(O)CC(O)C(O)CCC(O)CC(O)CC(=O)OC(C)C(C)C1O)CC(O)C2C(=O)NCCO (stereo not drawn) [Compound BA],MIC,Blastomyces dermatitidis,0.6 µM
same,MIC,Fusarium solani,8.67 µM
same,MICavg moulds (3 strains),moulds (3 strains),1.3
same,MIC C. albicans SN250,C. albicans SN250,0.25 µM
same,MIC,Mucor velutinosus,1.25 µM
same,MIC,Sporothrix schenckii,6 µM
same,Number of Mice Alive,"CD-1 mice; 40 mg/kg IV, 24 h",3/3
same,Number of Mice Distress-Fee,"CD-1 mice; 40 mg/kg IV, 24 h",3/3
same,Mouse single IV injection: mortality,CD-1 mice,0/4
same,Tolerability in mice,CD-1 mice; IV in D5W,Well-Tolerated
same,CL,[1]; Dog liver microsomes,<9.6 µL/min/mg
same,Remaining (T = 60 min),[1]; Dog liver microsomes,111%
same,T1/2,[1]; Dog liver microsomes,>145 min
same,CL,[1]; Human liver microsomes,<9.6 µL/min/mg
same,Remaining (T = 60 min),[1]; Human liver microsomes,99.9%
same,T1/2,[1]; Human liver microsomes,>145 min
same,CL,[1]; Monkey liver microsomes,<9.6 µL/min/mg
same,Remaining (T = 60 min),[1]; Monkey liver microsomes,108%
same,T1/2,[1]; Monkey liver microsomes,>145 min
same,CL,[1]; Mouse liver microsomes,<9.6 µL/min/mg
same,Remaining (T = 60 min),[1]; Mouse liver microsomes,97.7%
same,T1/2,[1]; Mouse liver microsomes,>145 min
same,CL,[1]; Rat liver microsomes,<9.6 µL/min/mg
same,Remaining (T = 60 min),[1]; Rat liver microsomes,115%
same,T1/2,[1]; Rat liver microsomes,>145 min
same,In vivo PK AUC0-inf,[2]; 1 mg/kg IV,7488] ng*hr/mL
same,In vivo PK Cl,[2]; 1 mg/kg IV,2.24 mL/min/kg
same,In vivo PK T1/2,[2]; 1 mg/kg IV,6.87 h
same,In vivo PK AUC0-inf,[2]; 5 mg/kg IV,26694 ng·h/mL
same,In vivo PK Cl,[2]; 5 mg/kg IV,3.13 mL/min/kg
same,In vivo PK T1/2,[2]; 5 mg/kg IV,8.00 h
same,Liver microsome T1/2,[3],>145 min
same,MIC,Candida auris,2.8 µM
same,MIC,A. fumigatus,2 µM
same,MIC,Licht. Corymbifera,1 µM
same,MIC,Apophysomyces sp.,16 µM
CC1C=CC=CC=CC=CC=CC=CC=CC(OC2OC(C)C(O)C(N)C2O)CC2OC(O)(CC(O)CC(O)C(O)CCC(O)CC(O)CC(=O)OC(C)C(C)C1O)CC(O)C2C(=O)NCCF (stereo not drawn) [Compound BM],MIC,Blastomyces dermatitidis,0.5 µM
same,MIC,Fusarium solani,8.8 µM
same,MICavg moulds (3 strains),moulds (3 strains),1.7
same,MIC,Mucor velutinosus,0.92 µM
same,MIC,Sporothrix schenckii,6.67 µM
same,MIC C. krusei,C. krusei,1 mM
same,MIC A. fumigatus 1163,A. fumigatus 1163,1 mM
same,Liver microsome T1/2,[3],>145 min
same,MIC,Candida auris,2.4 µM
same,MIC,A. fumigatus,1.83 µM
same,MIC,Licht. Corymbifera,1 µM
same,MIC,Apophysomyces sp.,8.3 µM
same,MIC C. tropicalis,C. tropicalis,0.5 mM
same,MIC C. glabrata,C. glabrata,0.25 mM
"C[C@@H]1[C@H](O)[C@@H](C)/C=C/C=C/C=C/C=C/C=C/C=C/C=C/[C@H](OC2O[C@H](C)[C@@H](O)[C@H](N)[C@@H]2O)C[C@@H]2O[C@](O)(C[C@@H](O)C[C@@H](O)[C@H](O)CC[C@@H](O)C[C@@H](O)CC(=O)O[C@H]1C)C[C@H](O)[C@H]2C(=O)O (stereo partly drawn) [AmB, Amphotericin B]",MIC,Blastomyces dermatitidis; Blastomyces dermatitidis,< 0.03 µM
same,MIC,Fusarium solani; Fusarium solani,1.33 µM
same,MICavg moulds (3 strains),moulds (3 strains),0.92
same,MIC,Mucor velutinosus; Mucor velutinosus,0.08 µM
same,MIC,Sporothrix schenckii; Sporothrix schenckii,4 µM
same,Mouse single IV injection: mortality,CD-1 mice,0/3
same,CLint scaled at 1 µM,[1]; Dog liver microsomes,< 14 mL/min/kg
same,Remaining (T = 60 min),[1]; Dog liver microsomes,106%
same,half-life at 1 µM,[1]; Dog liver microsomes,> 145 min
same,microsomal CLint at 1 µM,[1]; Dog liver microsomes,< 9.6 µL/min/mg
same,Remaining (T = NCF60 min),[1]; Dog liver microsomes,94.7%
same,CLint scaled at 1 µM,[1]; Human liver microsomes,< 8.6 mL/min/kg
same,Remaining (T = 60 min),[1]; Human liver microsomes,100%
same,half-life at 1 µM,[1]; Human liver microsomes,> 145 min
same,microsomal CLint at 1 µM,[1]; Human liver microsomes,< 9.6 µL/min/mg
same,Remaining (T = NCF60 min),[1]; Human liver microsomes,104%
same,CLint scaled at 1 µM,[1]; Monkey liver microsomes,< 13 mL/min/kg
same,Remaining (T = 60 min),[1]; Monkey liver microsomes,142%
same,half-life at 1 µM,[1]; Monkey liver microsomes,> 145 min
same,microsomal CLint at 1 µM,[1]; Monkey liver microsomes,< 9.6 µL/min/mg
same,Remaining (T = NCF60 min),[1]; Monkey liver microsomes,105%
same,CLint scaled at 1 µM,[1]; Mouse liver microsomes,< 38 mL/min/kg
same,Remaining (T = 60 min),[1]; Mouse liver microsomes,106%
same,half-life at 1 µM,[1]; Mouse liver microsomes,> 145 min
same,microsomal CLint at 1 µM,[1]; Mouse liver microsomes,< 9.6 µL/min/mg
same,Remaining (T = NCF60 min),[1]; Mouse liver microsomes,93.1%
same,CLint scaled at 1 µM,[1]; Rat liver microsomes,< 17 mL/min/kg
same,Remaining (T = 60 min),[1]; Rat liver microsomes,121%
same,half-life at 1 µM,[1]; Rat liver microsomes,> 145 min
same,microsomal CLint at 1 µM,[1]; Rat liver microsomes,< 9.6 µL/min/mg
same,Remaining (T = NCF60 min),[1]; Rat liver microsomes,111%
same,half-life at 1 µM,"[3]; liver microsomes, read-out: Liver microsome T1/2",> 145 min
same,MIC,Candida auris; Candidozyma auris,1.2 µM
same,MIC,A. fumigatus; Aspergillus fumigatus,0.71 µM
same,MIC,Licht. Corymbifera; Lichtheimia corymbifera,0.23 µM
same,"Renal toxicity biomarkers KIM1, LCN2, TIMP1, SPP1","KIM1, LCN2, TIMP1, SPP1",elevated
same,MIC,Apophysomyces sp.,0.75 µM
